Source: patent publication US20190117555A1, “SUBLINGUAL COMPOSITIONS COMPRISING NATURAL EXTRACTS AND USES THEREOF” (HARMONIC PHARMA, priority 2016, published 2019)

What was measured:
[1] = Total AntiOxidant Power (PAOT) assay; details: for total antioxidant efficacy (PAOT): n=4, FIG. 3 and 4
Protocol: 2.4. Total AntiOxidant Power (PAOT®) Assay (Oxidative Stress)
Technology PAOT/POT® (Total AntiOxidant Power/Total Oxidant Power) is based on the electrochemical nature of redox reactions: a balance between antioxidants and oxidants [www.ie-antioxydants.com]. The assays were carried out in quadruplicate (n=4) (The higher value corresponds to the best antioxidant efficacy).

[2] = Oxygen Radical Absorbance Capacity (ORAC) assay; details: n=4
Description: 2.3. Oxygen Radical Absorbance Capacity (ORAC) Assay
(Ou B., Hampsch-Woodill M. and Prior R. L.: “Development and Validation of an Improved Oxygen Radical Absorbance Capacity Assay Using Fluorescein as the Fluorescent Probe”, J. Agric. Food Chem., 2001, 49 (10), 4619-4626)
Measurement of antioxidant capacity by the ORAC method is based on the detection of fluorescence drop of fluorescein (FL) thanks to its reaction with peroxyl radical ROO*, in a food matrix containing antioxidant compounds. Fluorescence was read with an excitation wavelength of 485 nm and an emission filter of 528 nm. AAPH solution and FL were prepared in a phosphate buffer solution at 75 mM at pH 7.4. The control of this reaction is the trolox which is also prepared in the same buffer. Six different quantities (10, 20, 35, 50, 70, 80 μl) of product with concentration of 0.5 mg/L were placed in the wells of the microplate with FL and adjusted at the same volume with buffer solution (80 μl). The mixture was preincubated for 30 min at 37° C., before rapidly adding the AAPH solution (220 μl) using a multichannel pipette. The microplate was immediately placed in the reader and the fluorescence recorded every 6 min for 240 min. A blank with FL and AAPH using sodium phosphate buffer instead of the antioxidant solution was used. The inhibition capacity was expressed as reference compound equivalents (μM), and is quantified by integrating of the area under the curve (AUC) of the fluorescein. The assays were carried out in quadruplicate (n=4). Efficacy of the tested samples is expressed as reference ORAC units per gram of products (the higher value corresponds to the stronger antioxidant activity).

[3] = Trolox Equivalent Antioxidant Capacity (TEAC) assay; details: per 1 g of product; FIG. 2
Protocol: Trolox Equivalent Antioxidant Capacity (TEAC) Assay
ABTS radical cation (ABTS•+) was produced by reacting 7 mM ABTS stock solution with 2.45 mM potassium persulfate and allowing the mixture to stand in the dark at room temperature for 12-16 h before being used. Next ABTS•+solution was diluted with PBS (Phosphate Buffer Saline) (pH 7.4) to an absorbance of 0.5 at 734 nm and equilibrated at 30° C. 200 μl of ABTS•+ and (10, 20, 35, 50, 70, 80 μl) of product solutions (0.5 mg/L) was mixed and adjusted to 300 μl with buffer solution. After 15 min incubation, the optical density was measured. The assays were performed in quadruplicate (n=4). Efficacy is expressed as a value of EC50 (the smaller value of EC50 corresponds to the stronger antioxidant activity).

Human 5-LO = biological target: T1, Human 5-LO (Homo sapiens, UniProt P09917); assay: Human 5-LO inhibition assay; type: biochemical; details: HMR 10 μM; extract equiv. 10 μM
T1 sequence (P09917 1-674): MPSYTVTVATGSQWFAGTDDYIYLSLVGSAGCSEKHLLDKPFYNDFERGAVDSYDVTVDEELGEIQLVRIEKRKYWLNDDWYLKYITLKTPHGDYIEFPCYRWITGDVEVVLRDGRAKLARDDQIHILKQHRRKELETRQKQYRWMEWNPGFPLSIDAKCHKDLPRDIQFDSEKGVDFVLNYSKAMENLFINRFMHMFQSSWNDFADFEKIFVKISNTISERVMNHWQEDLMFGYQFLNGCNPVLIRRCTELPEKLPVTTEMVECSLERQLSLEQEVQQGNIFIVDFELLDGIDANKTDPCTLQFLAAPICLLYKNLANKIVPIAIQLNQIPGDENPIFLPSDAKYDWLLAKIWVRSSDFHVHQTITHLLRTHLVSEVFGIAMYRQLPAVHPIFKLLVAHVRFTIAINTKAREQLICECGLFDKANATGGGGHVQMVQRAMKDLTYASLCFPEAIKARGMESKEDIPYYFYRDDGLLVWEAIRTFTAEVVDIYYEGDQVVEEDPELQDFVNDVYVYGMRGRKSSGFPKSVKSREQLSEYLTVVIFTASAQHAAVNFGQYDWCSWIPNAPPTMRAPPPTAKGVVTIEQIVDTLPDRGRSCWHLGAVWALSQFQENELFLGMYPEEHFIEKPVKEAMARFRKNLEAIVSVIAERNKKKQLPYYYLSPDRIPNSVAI
Protocol: Human 5-LO Inhibition Assay:
The test compound, reference compound or water (control) were preincubated for 5 min at room temperature with 10^4 lysed cells/well in a buffer containing 50 mM Tris-HCl (pH 7.4), 5 mM CaCl2, 2 mM EDTA, 1 μM ATP and 50 nM fluorescent probe dihydrorhodamine 123. The fluorescence intensity was then measured at λex=485 nm and λem=535 nm using a microplate reader (Envision, Perkin Elmer). This measurement at t=0 allowed the detection of any compound interference with the fluorimetric detection method at these wavelengths. Thereafter, the reaction was initiated by adding 25 μM of the substrate arachidonic acid and the mixture was incubated for 20 min at room temperature. The reaction was stopped by adding a buffer containing 67% acetonitrile and 0.2% acetic acid and the fluorescence intensity emitted by the reaction product rhodamine 123 was measured at the same wavelengths (t=20). The enzyme activity was determined by subtracting the signal measured at t=0 from that measured at t=20.
The results are expressed as a percent inhibition of the control activity.

TNF-α = TNF-α release by LPS-stimulated PBMCs (HTRF); type: cell-based; details: Homo sapiens, PBMC, 5 μg/mL LPS, 24 h, read-out: % inhibition TNF-α (Standard deviation)
Protocol: (§1) Interleukin-1beta (IL-1beta) and tumor necrosis factor-alpha (TNF-alpha) mediate the development of numerous inflammatory diseases. IL-1beta and TNF-alpha therefore constitute suitable biomarkers to characterize the anti-inflammatory property of compounds of the part of branch extracts of the invention.
(§2) Peripheral blood mononuclear cells (PBMCs) were prepared from the peripheral blood of healthy donors (Etablissement Français du Sang) according to Kümmerle et al. (J Med Chem. 2012, 55, 7525-7545) with slight modifications. PBMCs were isolated using Histopaque gradient (Sigma), washed in Hanks' balanced salt solution (Sigma) and were then cultured in RPMI-1640 medium (Sigma) supplemented with 10% (v/v) fetal bovine serum (FBS) (PAA), 100 U/mL penicillin and 100 μg/mL streptomycin (PAA). PBMCs were seeded into 96-well plates (8×10^4 cells/well) and stimulated with 5 μg/mL LPS (Lipopolysaccharides, Sigma), into a total volume of 120 μL per well. HMR was re-suspended in DMSO and tested at 10, 30, and 100 μM (DMSO 1%) in duplicate. […] Cells incubation was realized at 37° C. (5% CO2).
(§3) After 24 h, PBMCs supernatants were transferred into a 384-well plate. Cytokine detection was performed using HTRF technology (Cisbio bioassays) for TNF-α (62TNFPEC), IL-1β (62IL1PEC) according to supplier recommendations. Reading was performed after 3 h of incubation using Envision multi-labelled reader (PerkinElmer) using supplier recommended parameters.

IL-1β = IL-1β release by LPS-stimulated PBMCs (HTRF); type: cell-based; details: Homo sapiens, PBMC, 5 μg/mL LPS, 24 h, read-out: % inhibition IL-1β (Standard deviation)
Protocol: as §1, §2, §3

Human COX-2 = biological target: T2, Human COX-2 (Homo sapiens, UniProt P35354); assay: Human COX-2 inhibition assay; type: biochemical; details: HMR 10 μM; extract equiv. 10 μM
T2 sequence (P35354 18-604): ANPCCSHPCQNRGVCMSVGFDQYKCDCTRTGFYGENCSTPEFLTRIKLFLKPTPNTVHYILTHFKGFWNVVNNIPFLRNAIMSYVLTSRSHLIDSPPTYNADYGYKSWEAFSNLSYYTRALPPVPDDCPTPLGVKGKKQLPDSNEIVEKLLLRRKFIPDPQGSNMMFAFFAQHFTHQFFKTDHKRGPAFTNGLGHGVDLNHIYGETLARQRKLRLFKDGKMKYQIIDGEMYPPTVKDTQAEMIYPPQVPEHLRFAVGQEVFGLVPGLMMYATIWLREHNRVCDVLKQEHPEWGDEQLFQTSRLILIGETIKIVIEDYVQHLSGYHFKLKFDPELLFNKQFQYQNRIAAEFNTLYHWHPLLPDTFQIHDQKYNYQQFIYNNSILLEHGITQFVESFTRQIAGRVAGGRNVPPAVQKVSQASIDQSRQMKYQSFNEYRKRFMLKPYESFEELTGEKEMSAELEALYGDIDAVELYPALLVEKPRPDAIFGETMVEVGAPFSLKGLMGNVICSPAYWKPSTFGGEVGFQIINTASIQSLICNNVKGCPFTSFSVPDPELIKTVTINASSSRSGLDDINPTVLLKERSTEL
Description: The results are expressed as a percent inhibition of the control enzyme activity.

Row | inhibition at 10 µM (Human 5-LO) [%] | inhibition at 10 µM (Human COX-2) [%] | SMILES | total antioxidant efficacy (PAOT) [1] | μmol Trolox/g tested product [2] | μmol Vit. C/g tested product [2] | μmol Vit. E/g tested product [2] | μmol β-carotene/g tested product [2] | antioxidant activity of 1 g of product equivalent to g of trolox [3] [g] | antioxidant activity of 1 g of product equivalent to g of vitamin E [3] [g] | antioxidant activity with regard to Trolox ([1]; reference Trolox) | antioxidant activity with regard to Vitamin E ([1]; reference Vitamin E (tocopherol)) | antioxidant activity with regard to β-carotene ([1]; reference β-carotene) | inhibition at 10 µM (TNF-α; 10 μM) [%] | inhibition at 30 µM (TNF-α; 30 μM) [%] | inhibition at 100 µM (TNF-α; 100 μM) [%] | inhibition at 10 µM (IL-1β; 10 μM) [%] | inhibition at 30 µM (IL-1β; 30 μM) [%] | inhibition at 100 µM (IL-1β; 100 μM) [%]
1 |  |  | O=C1OC[C@H](Cc2cccc(O)c2)[C@H]1Cc1cccc(O)c1 [enterolactone] | 1.06 mmol/g equivalent of antioxidant | 560 ± 50 μmol Trolox/g tested product | 110 ± 10 μmol Vit. C/g tested product | 105 ± 10 μmol Vit. E/g tested product | 30 ± 2 μmol β-carotene/g tested produ | 0.13 | 0.19 |  |  |  |  |  |  |  |  | 
2 |  |  | OC[C@H](Cc1cccc(O)c1)[C@H](CO)Cc1cccc(O)c1 [enterodiol] | 1.07 mmol/g equivalent of antioxidant | 500 ± 60 μmol Trolox/g tested product | 700 ± 100 μmol Vit. C/g tested product | 600 ± 80 μmol Vit. E/g tested product | 165 ± 5 μmol β-carotene/g tested produ | 0.15 | 0.22 |  |  |  |  |  |  |  |  | 
3 | 14.7 | 18.7 | COc1cc(C[C@H]2C(=O)OC[C@@H]2[C@H](O)c2ccc(O)c(OC)c2)ccc1O (stereo in doubt) [HMR, Hydroxymatairesinol] | 4.99 mmol/g equivalent of antioxidant | 210 ± 50 μmol Trolox/g tested product | 110 ± 10 μmol Vit. C/g tested product | 105 ± 10 μmol Vit. E/g tested product | 27 ± 2 μmol β-carotene/g tested produ |  |  | 0.62 gram of reference compound per gram of tested product | 1.07 gram of reference compound per gram of tested product | 2.68 gram of reference compound per gram of tested product | 7 | 15 | 26 | 10 | 25 | 28
